Patent publication US20110144012A1, “SHORTENED GLUCAGON-LIKE PEPTIDE 1(SGLP-1) PREPARATION METHOD AND APPLICATION” (Dalian D.N. Bio-Engineering Co., Ltd., priority 2005, published 2011)

Experiments:
[1] = in comparison with GLP-1; U.S. Pat. No. 5,424,286; cited from earlier work
[2] = in comparison with GLP-1; cited from earlier work
NOD mice [3] = assay: Insulinotropic hormone secretion effect of sGLP-1 (serum insulin, radio immunity kit); type: in vivo; details: fasting NOD mice, 10 microgram injected
Method: Experimental Material and Method: • NOD mice (Provided by Shanghai Laboratory Animal Center, Chinese Academy of Sciences) • 0.9% NaCl solution, pure sGLP-1 product (prepared in Example 1), pure GLP-1 product, and radio immunity insulin determination reagent kit (Made by Shanghai Institute of Biological Products (SIBP), Ministry of Health P.R.China.) NOD mice are divided into three groups. Use graduated capillary (wash the inner walls of the capillaries with 1 mg/mL heparin and dry the capillaries) to sample 50 microliters of blood from their orbital sinuses first, and inject the three groups of fasting mice with 10 microgram of sGLP-1, 10 microgram of GLP-1 and 200 microliters of normal saline, and regard this time as zero. Repeat the above operation at 5, 10, 20 and 30 minutes after that respectively. Place all the blood samples in a centrifuge tube with 50 microliters of normal saline in it, mix the blood samples and saline well, centrifuge the mixture at 3000 rpm to remove erythrocyte, and determinate insulin level of blood serum according to the method in this radio immunity reagent kit to check insulinotropic hormone secretion effect of sGLP-1. • The experiment result is shown in Table 2.

NOD mice [4] = assay: Blood glucose-lowering effect on NOD mice (glucose injection); type: in vivo; details: for blood glucose level, 0 minutes after administration / blood glucose level, 5 minutes after administration / blood glucose level, 10 minutes after administration / blood glucose level, 20 minutes after administration: NOD mice fasted overnight, 200 microliters 40% glucose + 10 microgram peptide; for blood glucose-lowering effect (in words): NOD mice, glucose injection + 10 microgram peptide
Method: Experimental Material and Method: • NOD mice (Provided by Shanghai Laboratory Animal Center, Chinese Academy of Sciences) fasting overnight. • 40% glucose, 0.9% NaCl solution, pure sGLP-1 product (Prepared in Example 1), pure GLP-1 product, reagent kit for blood glucose level determination (Made by Shanghai Institute of Biological Products (SIBP), Ministry of Health P.R.China.) NOD mice fast overnight, and are divided into three groups. Fasting Group 1 is injected with 200 microliters of 40% glucose and 10 microgram of sGLP-1; Fasting Group 2 is injected with 200 microliters of 40% glucose and 10 microgram of GLP-1; Group 3, a control group, is injected with only glucose. Immediately use graduated capillaries (treated with heparin before injection) to sample 20 microliters of blood from their orbital sinuses, add 300 microliters of normal saline to the blood and mix well, centrifuge it at 3000 rpm to remove erythrocyte, and use blood serum for fasting blood glucose level determination. […] The blood serum of the three groups is determined on blood glucose level according to the method in the reagent kit in order to check the blood glucose-lowering effect of each group.

[5] = system: GK diabetes mellitus rats; assay: Blood glucose-lowering effect experiment in GK diabetes mellitus rats (fasting blood glucose level); type: in vivo; details: injected 0.1 mg/time, twice a day for two weeks, fasted overnight
Method: Material and Method • GK diabetes mellitus rats (Provided by Shanghai Laboratory Animal Center, Chinese Academy of Sciences)
sGLP-1 sequence is as follows:
• The above eight polypeptides with different sequence is mixed with 0.9% NaCl solution to prepare 1 mg/ml solution, which is standby. • The rats are grouped at random, and fast overnight. Use graduated capillaries (treated with heparin before injection) to sample 20 microliters of blood from their orbital sinuses, add 300 microliters of normal saline to the blood and mix well, centrifuge it at 3000 rpm to remove erythrocyte, and use blood serum for fasting blood glucose level determination. Inject each group of rats with different polypeptides, and use normal saline as Control N. All the rats are injected at 0.1 mg/time, twice a day for two weeks. They must fast overnight, and be sampled according to the above method for fasting blood glucose level determination. […] No. 1 sequence is full-length GLP-1 sequence, in which the second amino acid is changed from A to G, as Control P; No. 2 to No. 5 are the reconstructed sequences with different shortened length.

Healthy C57/BL mice = assay: C peptide secretion promotion effect of sGLP-1 (serum C peptide, radio immunity kit); type: in vivo; details: fasting healthy C57/BL mice, 10 microgram injected
Method: Experiment Material and Method: • Healthy C57/BL mice (Provided by Shanghai Laboratory Animal Center, Chinese Academy of Sciences) • 0.9% NaCl solution, pure sGLP-1 product (Prepared in Example 1), pure GLP-1 product. • Radio immunity C-peptide determination reagent kit (Made by Shanghai Institute of Biological Products (SIBP), Ministry of Health P.R.China.) • Healthy C57/BL mice are divided into three groups. Use graduated capillary (wash the inner walls of the capillaries with 1 mg/mL heparin and dry the capillaries) to sample 50 microliters of blood from their orbital sinuses first, and inject the three groups of fasting mice with 10 microgram of sGLP-1, 10 microgram of GLP-1 and 200 microliters of normal saline, and regard this time as zero. Repeat the above operation at 5, 10, 20 and 30 minutes after that respectively. Place all the blood samples in a centrifuge tube with 50 microliters of normal saline in it, mix the blood samples and saline well, centrifuge the mixture at 3000 rpm to remove erythrocyte, and determinate C peptide level of blood serum according to the method in this radio immunity reagent kit to check C peptide secretion promotion effect of sGLP-1. • The experiment result is shown in Table 3.

Substance | insulin level, 0 minutes after administration (NOD mice [3]) | insulin level, 5 minutes after administration (NOD mice [3]) | insulin level, 10 minutes after administration (NOD mice [3]) | insulin level, 20 minutes after administration (NOD mice [3]) | insulin level, 30 minutes after administration (NOD mice [3]) | blood glucose level, 0 minutes after administration (NOD mice [4]) [mmol/L] | blood glucose level, 5 minutes after administration (NOD mice [4]) [mmol/L] | blood glucose level, 10 minutes after administration (NOD mice [4]) [mmol/L] | blood glucose level, 20 minutes after administration (NOD mice [4]) [mmol/L] | blood glucose-lowering effect (in words) (NOD mice [4]) | blood glucose-lowering effect (fasting blood glucose level) [5] | c peptide level, 0 minutes after administration (Healthy C57/BL mice) [pmol/mL] | c peptide level, 5 minutes after administration (Healthy C57/BL mice) [pmol/mL] | c peptide level, 10 minutes after administration (Healthy C57/BL mice) [pmol/mL] | c peptide level, 20 minutes after administration (Healthy C57/BL mice) [pmol/mL] | c peptide level, 30 minutes after administration (Healthy C57/BL mice) [pmol/mL] | also measured
Exendin 4 | – | – | – | – | – | – | – | – | – | – | – | – | – | – | – | – | concentration required for insulin secretion action (in words) [1]: lower; half time in human body (in words) [2]: longer half time in human body
HGEGTFTSDVSSYLEGQAAKEFIAWL [No. 2, shortened glucagon-like peptide 1 of 26 amino acids, X1 is Gly] | 2.88 10^−6 international unit | 10.56 10^−6 international unit | 19.88 10^−6 international unit | 24.67 10^−6 international unit | 16.45 10^−6 international unit | 4.08 | 4.34 | 4.28 | 3.98 | have blood glucose-lowering effect | blood glucose-lowering effect prominently exceeding No. 1 | 0.07 | 0.08 | 0.20 | 0.16 | 0.15 | insulin secretion promotion (in words) (NOD mice [3]): can prominently promote insulin secretion; insulin generation stimulation capacity compared with GLP-1 (in words) (NOD mice [3]; short-time versus medium and long-term): the same short-time insulin generation stimulation capacity as GLP-1 and the medium and long-term insulin generation stimulation capacity stronger than GLP-1; blood glucose-lowering effect (fasting blood glucose level) ([5]; listed as sGLP-1): better blood glucose-lowering effect than GLP-1 and its reconstructed sequence; c peptide secretion promotion (in words) (Healthy C57/BL mice): can prominently promote c peptide secretion; c peptide secretion promotion capacity compared with GLP-1 (in words) (Healthy C57/BL mice): c peptide secretion promotion capacity exceeding GLP-1
HSEGTFTSDVSSYLEGQAAKEFIAWL [No. 3, shortened glucagon-like peptide 1 of 26 amino acids, X1 is Ser] | – | – | – | – | – | – | – | – | – | – | blood glucose-lowering effect prominently exceeding No. 1 | – | – | – | – | – | –
His-Ala-Glu-Gly-Thr-Phe-Thr-Ser-Asp-Val-Ser-Ser-Tyr-Leu-Glu-Gly-Gln-Ala-Ala-Lys-Glu-Phe-Ile-Ala-Trp-Leu-Val-Lys-Gly-Arg [GLP-1] | 3.11 10^−6 international unit | 9.76 10^−6 international unit | 10.63 10^−6 international unit | 11.23 10^−6 international unit | 6.27 10^−6 international unit | 4.11 | 5.12 | 4.87 | 4.03 | have blood glucose-lowering effect | – | 0.07 | 0.08 | 0.15 | 0.11 | 0.09 | –
